Source: patent publication US20260217706A1, “HETEROCYCLIC COMPOUNDS, PREPARATION METHOD THEREFOR AND USE THEREOF” (GUANGZHOU YUFAN NANTU BIOTECHNOLOGIES CO., LTD, priority 2023, published 2026)

These compounds were tested against CBL-B protein (Homo sapiens, UniProt Q13191) (assay: CBL-B binding experiment (Streptavidin-Tb cryptate / Ligand L1 displacement)). Details: 8 nM CBL-B protein, 25° C., 60 minutes; Ki=Relative IC50/2.
How it was run: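 Buffer was 20 mM HEPES pH 7.5, 150 mM NaCl, 0.01% Triton X-100, 0.5 mM TCEP and BSA. Ten-point compound dilutions were incubated with 8 nM CBL-B for 60 min at 25° C., then read by luminescence after another 60 min at room temperature. IC50 came from a four-parameter fit, with Ki = relative IC50/2.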

Chain of CBL-B protein (Q13191 whole entry): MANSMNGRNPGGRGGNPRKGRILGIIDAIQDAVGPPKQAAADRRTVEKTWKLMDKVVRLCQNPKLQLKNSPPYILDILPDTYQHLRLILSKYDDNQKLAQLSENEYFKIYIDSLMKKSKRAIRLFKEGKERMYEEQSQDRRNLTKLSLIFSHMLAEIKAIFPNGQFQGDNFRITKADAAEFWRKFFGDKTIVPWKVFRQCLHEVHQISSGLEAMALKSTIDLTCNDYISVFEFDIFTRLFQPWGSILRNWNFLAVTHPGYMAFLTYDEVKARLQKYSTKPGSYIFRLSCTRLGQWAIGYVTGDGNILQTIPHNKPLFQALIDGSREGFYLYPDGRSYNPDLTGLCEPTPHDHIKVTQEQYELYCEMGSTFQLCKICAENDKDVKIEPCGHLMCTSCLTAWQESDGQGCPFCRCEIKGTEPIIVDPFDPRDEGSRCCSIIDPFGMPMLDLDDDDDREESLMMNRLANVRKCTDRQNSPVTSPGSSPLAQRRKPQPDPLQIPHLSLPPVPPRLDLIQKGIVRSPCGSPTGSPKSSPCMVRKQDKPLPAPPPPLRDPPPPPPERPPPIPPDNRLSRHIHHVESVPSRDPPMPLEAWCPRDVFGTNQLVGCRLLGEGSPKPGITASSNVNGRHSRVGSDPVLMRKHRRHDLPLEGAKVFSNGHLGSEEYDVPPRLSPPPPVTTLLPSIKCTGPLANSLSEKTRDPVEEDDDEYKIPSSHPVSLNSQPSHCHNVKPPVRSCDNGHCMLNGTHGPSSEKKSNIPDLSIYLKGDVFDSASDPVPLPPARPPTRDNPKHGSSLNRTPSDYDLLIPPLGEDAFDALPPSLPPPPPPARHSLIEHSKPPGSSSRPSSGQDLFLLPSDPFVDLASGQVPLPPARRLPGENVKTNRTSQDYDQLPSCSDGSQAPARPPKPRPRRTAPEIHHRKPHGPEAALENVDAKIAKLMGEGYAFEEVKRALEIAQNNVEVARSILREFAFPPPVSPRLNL

SMILES | Ki [nM]
CCN(CC)Cc1cc2c(C(F)(F)F)cn(-c3cccc([C@]4(c5nncn5C)C[C@H](OC)C4)c3)c(=O)c2[nH]1 [Compound T118, 2-((diethylamino)methyl)-6-(3-((1r,3r)-3-methoxy-1-(4-methyl-4H-1,2,4-triazol-3-yl)cyclobutyl)phenyl)-4-(trifluoromethyl)-1,6-dihydro-7H-pyrrolo[2,3-c]pyridin-7-one] | < 50
Cn1cnnc1C1(c2cccc(-n3cc(C(F)(F)F)c4cc(CN5CCC[C@]6(CCOC6)C5)[nH]c4c3=O)c2)CCC1 [Compound T123, (S)-2-((2-oxa-7-azaspiro[4.5]decan-7-yl)methyl)-6-(3-(1-(4-methyl-4H-1,2,4-triazol-3-yl)cyclobutyl)phenyl)-4-(trifluoromethyl)-1,6-dihydro-7H-pyrrolo[2,3-c]pyridin-7-one] | < 50
Cn1cnnc1C1(c2cccc(-n3cc(C(F)(F)F)c4cc(CN5CCC[C@@]6(CCOC6)C5)[nH]c4c3=O)c2)CCC1 [Compound T124, (R)-2-((2-oxa-7-azaspiro[4.5]decan-7-yl)methyl)-6-(3-(1-(4-methyl-4H-1,2,4-triazol-3-yl)cyclobutyl)phenyl)-4-(trifluoromethyl)-1,6-dihydro-7H-pyrrolo[2,3-c]pyridin-7-one] | 100 to 500
Cn1cnnc1C1(c2cccc(-n3cc(C(F)(F)F)c4cc(CN5CCC6(CCOC6)CC5)[nH]c4c3=O)c2)CCC1 [Compound T125, 2-((2-oxa-8-azaspiro[4.5]decan-8-yl)methyl)-6-(3-(1-(4-methyl-4H-1,2,4-triazol-3-yl)cyclobutyl)phenyl)-4-(trifluoromethyl)-1,6-dihydro-7H-pyrrolo[2,3-c]pyridin-7-one] | < 50
CC1CC(c2cc(C(N)=O)cc(-n3cc(C(F)(F)F)c4cc(CN5CCC[C@H](C)C5)[nH]c4c3=O)c2)(c2nncn2C)C1 (stereo partly drawn) [Compound T127, 3-[3-methyl-1-(4-methyl-1,2,4-triazol-3-yl)cyclobutyl]-5-[2-[[(3S)-3-methyl-1-piperidyl]methyl]-7-oxo-4-(trifluoromethyl)-1H-pyrrolo[2,3-c]pyridin-6-yl]benzamide] | < 50
CC1CC(c2cc(C(=O)O)cc(-n3cc(C(F)(F)F)c4cc(CN5CCC[C@H](C)C5)[nH]c4c3=O)c2)(c2nncn2C)C1 (stereo partly drawn) [Compound T128, 3-[3-methyl-1-(4-methyl-1,2,4-triazol-3-yl)cyclobutyl]-5-[2-[[(3S)-3-methyl-1-piperidyl]methyl]-7-oxo-4-(trifluoromethyl)-1H-pyrrolo[2,3-c]pyridin-6-yl]benzoic acid] | < 50
C[C@H]1CCCN(Cc2cc3c(C(F)(F)F)cn(-c4cccc(C5(c6nncn6C)COC5)c4)c(=O)c3[nH]2)C1 [Compound T129, (S)-6-(3-(3-(4-methyl-4H-1,2,4-triazol-3-yl)oxetan-3-yl)phenyl)-2-((3-methylpiperidin-1-yl)methyl)-4-(trifluoromethyl)-1,6-dihydro-7H-pyrrolo[2,3-c]pyridin-7-one] | < 50
C[C@@H]1CN(Cc2cc3c(C(F)(F)F)cn(-c4cccc([C@]5(c6nncn6C)C[C@@H](C)C5)c4)c(=O)c3[nH]2)CCN1C(=O)OC(C)(C)C [Compound T141, tert-butyl (2R)-2-methyl-4-[[6-[3-[3-methyl-1-(4-methyl-1,2,4-triazol-3-yl)cyclobutyl]phenyl]-7-oxo-4-(trifluoromethyl)-1H-pyrrolo[2,3-c]pyridin-2-yl]methyl]piperazine-1-carboxylate] | < 50
C[C@@H]1CN(Cc2cc3c(C(F)(F)F)cn(-c4cccc([C@]5(c6nncn6C)C[C@@H](C)C5)c4)c(=O)c3[nH]2)CCN1 [Compound T142, 6-[3-[3-methyl-1-(4-methyl-1,2,4-triazol-3-yl)cyclobutyl]phenyl]-2-[[(3R)-3-methylpiperazin-1-yl]methyl]-4-(trifluoromethyl)-1H-pyrrolo[2,3-c]pyridin-7-one] | < 50
CO[C@H]1C[C@@](c2cccc(-n3cc(C(F)(F)F)c4cc(CN5CC6CC6C5)[nH]c4c3=O)c2)(c2nncn2C)C1 (stereo partly shown) [Compound T143, 2-((3-azabicyclo[3.1.0]hexan-3-yl)methyl)-6-(3-((1s,3s)-3-methoxy-1-(4-methyl-4H-1,2,4-triazol-3-yl)cyclobutyl)phenyl)-4-(trifluoromethyl)-1,6-dihydro-7H-pyrrolo[2,3-c]pyridin-7-one] | < 50
CO[C@H]1C[C@](c2cccc(-n3cc(C(F)(F)F)c4cc(CN5CC6CC6C5)[nH]c4c3=O)c2)(c2nncn2C)C1 (stereo partly shown) [Compound T144, 2-((3-azabicyclo[3.1.0]hexan-3-yl)methyl)-6-(3-((1r,3r)-3-methoxy-1-(4-methyl-4H-1,2,4-triazol-3-yl)cyclobutyl)phenyl)-4-(trifluoromethyl)-1,6-dihydro-7H-pyrrolo[2,3-c]pyridin-7-one] | < 50
CO[C@H]1C[C@](c2cccc(-n3cc(C(F)(F)F)c4cc(CN5CC6CCC(C6)C5)[nH]c4c3=O)c2)(c2nncn2C)C1 [Compound T146, 2-((3-azabicyclo[3.2.1]octan-3-yl)methyl)-6-(3-((1r,3r)-3-methoxy-1-(4-methyl-4H-1,2,4-triazol-3-yl)cyclobutyl)phenyl)-4-(trifluoromethyl)-1,6-dihydro-7H-pyrrolo[2,3-c]pyridin-7-one] | < 50
CO[C@H]1C[C@](c2cccc(-n3cc(C(F)(F)F)c4cc(CN5CCCC6(CC6)C5)[nH]c4c3=O)c2)(c2nncn2C)C1 [Compound T148, 2-((5-azaspiro[2.5]octan-5-yl)methyl)-6-(3-((1r,3r)-3-methoxy-1-(4-methyl-4H-1,2,4-triazol-3-yl)cyclobutyl)phenyl)-4-(trifluoromethyl)-1,6-dihydro-7H-pyrrolo[2,3-c]pyridin-7-one] | < 50
CCN(Cc1cc2c(C(F)(F)F)cn(-c3cccc([C@]4(c5nncn5C)C[C@H](OC)C4)c3)c(=O)c2[nH]1)CC(C)C [Compound T150, 2-((ethyl(isobutyl)amino)methyl)-6-(3-((1r,3r)-3-methoxy-1-(4-methyl-4H-1,2,4-triazol-3-yl)cyclobutyl)phenyl)-4-(trifluoromethyl)-1,6-dihydro-7H-pyrrolo[2,3-c]pyridin-7-one] | < 50
CO[C@H]1C[C@@](c2cccc(-n3cc(C(F)(F)F)c4cc(CNCCC5CC5)[nH]c4c3=O)c2)(c2nncn2C)C1 [Compound T153, 2-(((2-cyclopropylethyl)amino)methyl)-6-(3-((1s,3s)-3-methoxy-1-(4-methyl-4H-1,2,4-triazol-3-yl)cyclobutyl)phenyl)-4-(trifluoromethyl)-1,6-dihydro-7H-pyrrolo[2,3-c]pyridin-7-one] | < 50
CO[C@H]1C[C@@](c2cccc(-n3cc(C(F)(F)F)c4cc(CN5CCCC(C(F)F)C5)[nH]c4c3=O)c2)(c2nncn2C)C1 (stereo partly shown) [Compound T155, 2-((3-(difluoromethyl)piperidin-1-yl)methyl)-6-(3-((1s,3s)-3-methoxy-1-(4-methyl-4H-1,2,4-triazol-3-yl)cyclobutyl)phenyl)-4-(trifluoromethyl)-1,6-dihydro-7H-pyrrolo[2,3-c]pyridin-7-one] | < 50
CCN(Cc1cc2c(C(F)(F)F)cn(-c3cccc([C@]4(c5nncn5C)C[C@H](OC)C4)c3)c(=O)c2[nH]1)C(C)C [Compound T193] | < 50

Each compound was assayed on anti-CD3 activated human PBMCs (assay: Effect of compounds on the level of IL-2 secretion by anti-CD3 activated human PBMCs (IL-2 ELISA)). Details: compound concentration at which fold change in IL-2 = 5; hPBMCs, CD3 antibody 2 μg/mL, 48 h, compound from 3 μM.
Assay type: cell-based
Method: 2. Inoculate the resuspended cells into a 96-well cell culture plate at 200 ul/well of cell suspension, and incubate in a 37° C. cell incubator for 1 h;
3. Adjust the compound concentration with DMSO, starting at a final concentration of 3 μM, and perform a 3-fold dilution sequentially for 10 concentration gradients, with an additional DMSO control well set up; and
4. Adjust the CD3 antibody to an appropriate concentration to achieve a final concentration of 2 μg/mL, mix thoroughly, and incubate in a 37° C. cell incubator for 48h.
5. After 48 h, centrifuge at 1500 rpm for 5 min to collect the supernatant of the culture medium for the human IL-2 ELISA test.
The OD values obtained from the ELISA test are converted into the fold change (FC) in IL-2 concentration. […] The EC50 is calculated using GraphPad Prism. When the fold change=5, the corresponding compound concentration is CFC=5 (in nM).

SMILES | IL-2 CFC=5/nM [nM]
C[C@H]1CCCN(Cc2cc3c(C4CC4)cn(-c4cccc([C@]5(c6nncn6C)C[C@@H](C)C5)c4)c(=O)c3[nH]2)C1 [Compound T011, 4-cyclopropyl-6-(3-((1s,3R)-3-methyl-1-(4-methyl-4H-1,2,4-triazol-3-yl)cyclobutyl)phenyl)-2-(((S)-3-methylpiperidin-1-yl)methyl)-1,6-dihydro-7H-pyrrolo[2,3-c]pyridin-7-one] | <500
C[C@H]1CCCN(Cc2cc3c(C4CC4)cn(-c4cccc([C@]5(c6nncn6C)C[C@H](C)C5)c4)c(=O)c3[nH]2)C1 [Compound T014, 4-cyclopropyl-6-(3-((1r,3S)-3-methyl-1-(4-methyl-4H-1,2,4-triazol-3-yl)cyclobutyl)phenyl)-2-(((S)-3-methylpiperidin-1-yl)methyl)-1,6-dihydro-7H-pyrrolo[2,3-c]pyridin-7-one] | <500
Cn1cnnc1C1(c2cccc(-n3cc(C(F)(F)F)c4cc(CN5CC[C@H](F)C5)[nH]c4c3=O)c2)CCC1 [Compound T020, 2-[[(3S)-3-fluoropyrrolidin-1-yl]methyl]-6-[3-[1-(4-methyl-1,2,4-triazol-3-yl)cyclobutyl]phenyl]-4-(trifluoromethyl)-1H-pyrrolo[2,3-c]pyridin-7-one] | <500
Cn1cnnc1C1(c2cccc(-n3cc(C(F)(F)F)c4cc(CN5CC[C@@H](F)C5)[nH]c4c3=O)c2)CCC1 [Compound T021, 2-[[(3R)-3-fluoropyrrolidin-1-yl]methyl]-6-[3-[1-(4-methyl-1,2,4-triazol-3-yl)cyclobutyl]phenyl]-4-(trifluoromethyl)-1H-pyrrolo[2,3-c]pyridin-7-one] | <500
C[C@H]1CCCN(Cc2cc3c(C(F)(F)F)cn(-c4cccc([C@]5(c6nncn6C)C[C@H](C#N)C5)c4)c(=O)c3[nH]2)C1 [Compound T136, (1S,3r)-3-(4-methyl-4H-1,2,4-triazol-3-yl)-3-(3-(2-(((S)-3-methylpiperidin-1-yl)methyl)-7-oxo-4-(trifluoromethyl)-1,7-dihydro-6H-pyrrolo[2,3-c]pyridin-6-yl)phenyl)cyclobutane-1-carbonitrile] | <500
